The values that follow come from patent publication US20100248255A1, “NOVEL PEPTIDES” (KYOWA HAKKO KOGYO CO., LTD, priority 2005, published 2010).

Entries after “also recorded” stand apart in the source; their conditions may differ. Read-outs that look alike come from different tables or passages of the source. No end group written: not given here.

Assay [1] deals with vascular cells of the apoaequorin-expressing mice. The settings on record: final concentration of 1 μmol/L; reported in WO02/010371; cited from earlier work.
Assay [2] relates to uterus. The settings on record: final concentration of 1 μmol/L; reported in WO02/010371; cited from earlier work.
The test system of assay [3] is antiserum (rabbit, Peptide 7-KLH conjugate as antigen). Briefly: Binding specificity of antiserum by competitive RIA with [125I]-labeled Peptide 1. As for the experimental part: As controls, reactions that use RIA buffer instead of the antiserum to measure non-specific binding, and reactions […] that use RIA buffer instead of VGF-derived peptide solutions to measure the maximum binding level were carried out. Reactions for non-specific binding were performed in quadruplicates, and the other reactions were performed in duplicates, and for each of the reactants, the immune complex was precipitated as in the above-mentioned antibody titer measurements, and its radioactivity (cpm) was measured. The average radioactivity of non-specific binding reaction is defined as non-specific binding level N, the radioactivity value for each VGF-derived peptide addition reaction is defined as Y, and the radioactivity value of maximum binding reaction is defined as Z. The percentage ratio (B/B0) of antiserum specific binding level (B) with peptide addition to the maximum binding level (B0), was determined using the following formula.
B/B0 (%)={(Y−N)/(Z−N)}×100
Accordingly, the amount of peptide that achieves 50% B/B0, more specifically, the amount of peptide that yields 50% inhibition of the maximum binding level, was used as an indicator of the peptide binding activity to the antiserum.
The amounts of peptide/tube used for performing the measurements were 0.5, 1, 2, 4, 8, 16, 32, 64, 128, 256, 512 and 1024 fmol for Peptide 1; 1, 2, 4, 8, 16, 32, 64, 128, 256, 512 and 1024 fmol for Peptide 2; 1, 3.3, 10, 33, 100, 333, 1000, 3300, 10,000, 33,000, 100,000, 333,000 and 1,000,000 fmol for Peptide 3; and 1,000, 10,000, 100,000 and 1,000,000 fmol for Peptide 8.

Assay [4] concerns adrenal gland. The settings on record: final concentration of 1 μmol/L; reported in WO02/010371; cited from earlier work.
Assay [5] concerns adrenal gland. Briefly: Aequorin luminescence, adrenal gland of apoaequorin-expressing mice. Format: cell-based, mouse. The settings on record: organ pieces, peptide final concentrations of 1 μmol/L and of 5 μmol/L. The source says:
(§1) Whether Peptides 1 to 5, 9 and 10 synthesized in Example 2 have the activity of increasing intracellular calcium ion concentration was investigated using the organs of transgenic mice introduced with the apoaequorin gene and systemically expressing apoaequorin (hereinafter referred to as apoaequorin-expressing mice). In apoaequorin-expressing mouse cells, light is emitted when apoaequorin binds to a calcium ion in the presence of the luminescent substrate coelenterazine and thus the intracellular calcium ion concentration can be monitored. Patent Document (WO02/010371) discloses the method for producing apoaequorin-expressing mice, method for evaluating biologically active substances that use biological samples derived from the mice, and experimental results of evaluating biologically active peptides using the mouse organs as shown below. […]
(§2) Apoaequorin-expressing mice were produced according to the method disclosed in Reference Example 4 of Patent Document (WO02/010371). […] After culturing, RPMI 1640 medium was added, and then Peptides 1 to 5, 9 and 10 dissolved in RPMI 1640 medium were added 25 seconds after the addition of RPMI 1640 until each peptide had final concentrations of 1 μmol/L and of 5 μmol/L, and the relative luminescence levels were measured every second immediately after the addition of RPMI 1640 medium by using a luminometer (AutoLumat LB953, manufactured by Berthold).

The next assay deals with spleen. Briefly: Aequorin luminescence, spleen of apoaequorin-expressing mice. Format: cell-based, mouse. The settings on record: organ pieces, peptide final concentrations of 1 μmol/L and of 5 μmol/L. The source says:
(§3) Whether Peptides 1 to 5, 9 and 10 synthesized in Example 2 have the activity of increasing intracellular calcium ion concentration was investigated using the organs of transgenic mice introduced with the apoaequorin gene and systemically expressing apoaequorin (hereinafter referred to as apoaequorin-expressing mice). In apoaequorin-expressing mouse cells, light is emitted when apoaequorin binds to a calcium ion in the presence of the luminescent substrate coelenterazine and thus the intracellular calcium ion concentration can be monitored. Patent Document (WO02/010371) discloses the method for producing apoaequorin-expressing mice, method for evaluating biologically active substances that use biological samples derived from the mice, and experimental results of evaluating biologically active peptides using the mouse organs as shown below. […] Therefore, apoaequorin-expressing mice can be used in the evaluation of the physiological activities of novel peptides.
(§4) Apoaequorin-expressing mice were produced according to the method disclosed in Reference Example 4 of Patent Document (WO02/010371). The apoaequorin-expressing mice were sacrificed, individual organs including thymus, spleen, bone, blood vessel, heart, kidney, adrenal gland, pancreas, pituitary gland, and uterus, were removed; and each of the organs was cut into small cubes of approximately 1 to 2 mm^3. Next, in 5-mL tubes (Rohren-Tubes; manufactured by Sarstedt, No. 55.476), three portions of each of the prepared organs were added to 50 μL of a 10 μmol/L solution of coelenterazine (manufactured by Molecular Probes) dissolved in RPMI 1640 medium, and these were cultured at 37° C. for three hours. After culturing, RPMI 1640 medium was added, and then Peptides 1 to 5, 9 and 10 dissolved in RPMI 1640 medium were added 25 seconds after the addition of RPMI 1640 until each peptide had final concentrations of 1 μmol/L and of 5 μmol/L, and the relative luminescence levels were measured every second immediately after the addition of RPMI 1640 medium by using a luminometer (AutoLumat LB953, manufactured by Berthold).

Assay [6] deals with vascular cells of the apoaequorin-expressing mice. The assay can be described thus: Intracellular calcium ion increase (aequorin luminescence), blood vessel of apoaequorin-expressing mice. Type of assay: cell-based, mouse. The settings on record: for luminescence in the blood vessel: organ pieces, peptide final concentrations of 1 μmol/L and of 5 μmol/L. Here is the method:
(§5) A heart or blood vessel is collected from transgenic mice systemically expressing apoaequorin (WO02/010371) produced by introducing an apoaequorin gene expression vector into fertilized eggs. The obtained heart or blood vessel is cut finely into pieces, suspended in a medium containing coelenterazine, and then incubated to incorporate coelenterazine into the cells to form aequorin (a complex of apoaequorin and coelenterazine). Since aequorin luminesces upon binding to intracellular calcium ions, the relative luminescence level in cells before and after addition of a medium containing the peptide or a pharmaceutically acceptable salt thereof is measured in a luminometer every second over time and is used as an indicator of intracellular calcium ion concentration. Increase in the relative luminescence level due to addition of the peptide or pharmaceutically acceptable salt thereof confirms that the peptide or pharmaceutically acceptable salt thereof has the activity to increase intracellular calcium ion concentration.
as §3, §4
On the technique in general: A change in cytosolic calcium serves as a functional read-out for many receptors and channels.

Another assay deals with bone. Briefly: Aequorin luminescence, bone of apoaequorin-expressing mice. Format: cell-based, mouse. The settings on record: organ pieces, peptide final concentrations of 1 μmol/L and of 5 μmol/L.
Source text: as §1, §2

Assay [7] concerns cardiac cells of the apoaequorin-expressing mice. Briefly: Intracellular calcium ion increase (aequorin luminescence), heart of apoaequorin-expressing mice. Type of assay: cell-based, mouse. The settings on record: for intracellular calcium concentration in cardiac cells (RLU per second): 1 μmol/L of peptide, added at 25 seconds; for luminescence in the heart: organ pieces, peptide final concentrations of 1 μmol/L and of 5 μmol/L. As for the experimental part: as §5, §3, §4

A further assay concerns kidney. Briefly: Aequorin luminescence, kidney of apoaequorin-expressing mice. Format: cell-based, mouse. The settings on record: organ pieces, peptide final concentrations of 1 μmol/L and of 5 μmol/L.
Source text: as §1, §2

The next assay concerns pituitary gland. The assay can be described thus: Aequorin luminescence, pituitary gland of apoaequorin-expressing mice. Format: cell-based, mouse. The settings on record: organ pieces, peptide final concentrations of 1 μmol/L and of 5 μmol/L.
Source text: as §3, §4

The test system of the next assay is thymus. Briefly: Aequorin luminescence, thymus of apoaequorin-expressing mice. Format: cell-based, mouse. The settings on record: organ pieces, peptide final concentrations of 1 μmol/L and of 5 μmol/L.
Source text: as §3, §4

Assay [8] relates to uterus. The assay can be described thus: Aequorin luminescence, uterus of apoaequorin-expressing mice. The settings on record: organ pieces, peptide final concentrations of 1 μmol/L and of 5 μmol/L. Format: cell-based, mouse.
Source text: as §3, §4

A short description of assay [9]: Effect on rat blood pressure (anesthetized rats, bolus injection). The settings on record: 300 nmol in saline, bolus injection into external jugular vein, anesthetized male Wistar rats. Type of assay: in vivo. As for the experimental part:
Catheters are inserted into the external jugular vein and internal carotid artery of an anesthetized animal such as rat or the like, and arterial pressure is measured continuously by connecting the catheter in the internal carotid artery to a blood pressure monitor. The peptide or pharmaceutically acceptable salt dissolved in physiological saline is administered through the external jugular vein.
Wistar rats (male, 10-weeks old, 250 to 300 g) were anesthetized by intraperitoneally administering Pentobarbital at 50 mg/kg body weight. Catheters were inserted into the external jugular vein and internal carotid artery of the anesthetized rats; the catheter in the internal carotid artery was connected to a blood pressure monitor; 300 nmol of Peptide 2 dissolved in saline (100 μL) was administered from the external jugular vein by bolus injection; and blood pressure was measured continuously.

Where [10] appears, read: VGF-derived peptides, sequentially diluted.

Regarding “angiotensin II (DRVYIHPF) [non-VGF peptide]”, the “luminescence in the blood vessels” value in assay [1] is listed as “strong luminescence was observed”. Moreover, in the assay with uterus [2], the “luminescence in the uterus” value is given as “strong luminescence was observed”. For the same substance, in assay [3] (non-VGF peptides at 1, 10, and 100 pmol), the “inhibition of antiserum binding to [125I]-labeled Peptide 1” value (from here on “inhibition of antiserum binding”) is recorded as “none of the peptides showed inhibition”. For the same substance, in the assay with adrenal gland [4], the “luminescence in the adrenal glands” value is “strong luminescence was observed”.

For the substance “Peptide 3: positions 554 to 583 of the amino acid sequence of human VGF, termini unmodified (H-TLQPPSALRRRHYHHALPPSRHYPGREAQA-OH)”, in the assay with adrenal gland [5], the “luminescence in the adrenal gland” value is listed as “luminescence was observed”. In addition, the “luminescence in the spleen” value in the assay with spleen was “luminescence was observed”. Also, in assay [6], the “luminescence in the blood vessel” value is listed as “luminescence was observed”. Further, the “inhibition of antiserum binding” value in assay [3] (setting [10]) is “dose-dependent inhibition of antiserum binding but the inhibition was weak”. Also, in assay [3] (fraction of the Peptide 1 binding), the “antiserum binding relative to the Peptide 1 binding” value is reported as 1/10000. In addition, in [3] (relative to Peptides 1 and 2), the “amount required to show the same degree of inhibition as Peptides 1 and 2” value was “approximately 10,000 folds”. Also, in the assay with bone, the “luminescence in the bone” value was “luminescence was observed”. In assay [7], the “intracellular calcium concentration in cardiac cells (RLU per second)” value is given as “increase of intracellular calcium concentration” and the “luminescence in the heart” value is recorded as “luminescence was observed”. For the same substance, in the assay with kidney, the “luminescence in the kidney” value is “luminescence was observed”. For the same substance, in the assay with pituitary gland, the “luminescence in the pituitary gland” value is listed as “luminescence was observed”. In the assay with thymus, the “luminescence in the thymus” value was “luminescence was observed”. In addition, the “luminescence in the uterus” value in the assay on uterus [8] is reported as “luminescence was observed”.

With “Peptide 2: positions 554 to 577 of human VGF (SEQ ID NO: 3) with C-terminal amide (TLQPPSALRRRHYHHALPPSRHYP-NH2)”, the “luminescence in the spleen” value with spleen is “luminescence was observed”. Further, the “change in average arterial blood pressure” value in [9] is listed as “obvious increase in blood pressure; also recorded: increase of blood pressure”. Also, in [6] (5 μmol/L of peptide, added at 25 seconds), the “intracellular calcium concentration in vascular cells (RLU per second)” value is recorded as “increase of intracellular calcium concentration”. Moreover, the “luminescence in the blood vessel” value in [6] was “luminescence was observed”. The “inhibition of antiserum binding” value in assay [3] (setting [10]) was “same degree of quantity-dependent inhibition”. For the same substance, the “luminescence in the bone” value in the assay on bone is recorded as “luminescence was observed”. Further, in assay [7], the “intracellular calcium concentration in cardiac cells (RLU per second)” value is “increase of intracellular calcium concentration” and the “luminescence in the heart” value was “luminescence was observed”. The “luminescence in the thymus” value in the assay with thymus was “luminescence was observed”. Further, in the assay on uterus [8], the “luminescence in the uterus” value is “luminescence was observed”.
